Here are results for 23 compounds from patent publication US11198687B2, “Heteroaryl allosteric modulators of nicotinic acetylcholine receptors” (Merck Sharp & Dohme Corp., priority 2017, dated 2021).

The assay addresses human α7 nAChR (Homo sapiens, UniProt P36544). Description: Automated patch-clamp electrophysiology functional assay (Assay A). To be noted: IonFlux HT whole-cell population patch, HEK cell line stably expressing human RIC-3 and human α7, 40 μM acetylcholine. Type of assay: cell-based. The procedure:
The α7 nAChR positive allosteric modulator (PAM) activity of the present compounds may be tested using assays known in the art. […] The assay was performed using the IonFlux HT in a whole-cell, population patch configuration. See Golden et al. Assay Drug Dev. Technol. (2011) 9:608-619. The compounds were assessed for their ability to modulate the function of the human α7 nAChR stably expressed in a HEK cell line both in the presence, and in the absence of the natural α7 agonist acetylcholine. By performing a series of such measurements at different concentrations, the effective concentration of the α7 nAChR PAMs (EC50) was determined. See Spencer et al. Assay Drug Dev. Technol. (2012) 10:313-324.
Direct activation of α7 (agonism), and potentiation of acetylcholine-evoked α7 currents was determined as follows:
Automated Patch-Clamp Electrophysiology Functional Assay (Assay A)
Automated patch-clamp electrophysiology was performed using the IonFlux HT (Fluxion Biosciences Inc., San Francisco, Calif.) in the whole-cell, population patch configuration. Test compounds were assessed for their ability to modulate the function of the α7 nicotinic acetylcholine receptor both in the presence, and in the absence of the natural α7 agonist acetylcholine. A HEK cell line stably expressing both human RIC-3 and human α7 (PrecisION hnAChR α7/RIC-3, Eurofins Pharma, St. Charles, Mo.) was cultured in 175 cm^2 triple-layer tissue culture flasks to no more than 90% confluency in DMEM/F-12 growth media supplemented with 10% heat-inactivated fetal bovine serum, 1% non-essential amino acids, 0.625 μg/mL Puromycin, and 400 μg/mL Geneticin. Immediately prior to assay, cells were detached by first aspirating growth media, rinsing with Dulbecco's phosphate buffered saline, and then adding 10 mL of Accutase (Innovative Cell Technologies, San Diego, Calif.) to the flask and then incubating at 37° C. for 5 minutes. Detached cells were then recovered by the addition of 40 mL of CHO-serum-free media supplemented with 25 mM HEPES, and rocked gently in a 50 mL conical tube for 20 minutes prior to patch-clamp assay. […] The cell suspension was added to the cell inlet wells on an IonFlux HT population patch plate which had previously been rinsed and primed with deionized H2O. Test compounds were serially diluted in DMSO and then resuspended to the final test concentration in external recording solution, with, or without 40 μM acetylcholine added to the external recording solution; test compounds were then transferred to the lonFlux HT population patch plate. Internal recording solution (110 mM TrisPO4, 28 mM TrisBase, 0.1 mM CaCl2, 2 mM MgCl2, 11 mM EGTA, 4 mM MgATP) was added to the internal recording solution inlet wells on the IonFlux HT patch plate previously loaded with cells and test compounds, and the plate loaded into the IonFlux HT instrument. A protocol was executed on the IonFlux HT to trap the cells, break into the cells, and establish the whole-cell recording configuration; cells were voltage-clamped at a holding potential of −60 mV for the duration of the experiment, all experiments were conducted at room temperature, and the IonFlux HT injection pressure was 8 psi for solution applications. Upon establishing the whole-cell configuration, external recording solution was perfused into the recording chambers for 120 seconds and then 40 μM acetylcholine was applied for 1 second and immediately washed off with external recording solution for 60 seconds. The 40 μM acetylcholine-evoked α7 current served as the current response to which subsequent test compound effects, in the presence, or in the absence of 40 μM acetylcholine would be quantified relative to. Next, test compounds were evaluated at multiple concentrations for their ability to induce, or modulate α7 current responses; three concentrations of test compound were evaluated in ascending dose fashion per recording.
A general note: The patch-clamp technique gives a direct electrical read-out from membranes.

SMILES strings stand for the structures. pEC50: −log10 of the molar value. Read-outs that look alike come from different tables or passages of the source.

Sequence of human α7 nAChR (P36544 23-502): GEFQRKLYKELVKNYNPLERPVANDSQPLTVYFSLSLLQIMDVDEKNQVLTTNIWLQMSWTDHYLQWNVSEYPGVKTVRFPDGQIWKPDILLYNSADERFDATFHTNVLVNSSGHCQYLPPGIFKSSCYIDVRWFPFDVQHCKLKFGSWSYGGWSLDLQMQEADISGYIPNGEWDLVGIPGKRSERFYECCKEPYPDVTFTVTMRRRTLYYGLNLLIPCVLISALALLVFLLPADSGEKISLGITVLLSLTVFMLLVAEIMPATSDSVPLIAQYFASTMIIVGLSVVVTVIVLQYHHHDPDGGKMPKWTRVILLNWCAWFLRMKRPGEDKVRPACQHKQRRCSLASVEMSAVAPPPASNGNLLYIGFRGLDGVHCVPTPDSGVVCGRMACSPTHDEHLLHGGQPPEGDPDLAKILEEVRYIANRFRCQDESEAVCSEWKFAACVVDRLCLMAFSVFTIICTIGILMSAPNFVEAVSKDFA

For `COc1ccc(Cl)cc1-c1noc([C@@H]2[C@@H](c3ccc(S(N)(=O)=O)nc3)C2(C)C)n1` [Example A6, 5-{(1R,3R)-3-[3-(5-Chloro-2-methoxyphenyl)-1,2,4-oxadiazol-5-yl]-2,2-dimethylcyclopropyl}pyridine-2-sulfonamide], the pEC50 (read-out: α7 nAChR EC50) is 5.82 and the pEC50 (read-out: α7 nAChR Potency) is 5.30 to 6.30.
For `CC1(C)[C@H](c2ccc(S(N)(=O)=O)nc2)[C@H]1c1nc(-c2cccc(F)c2)no1` [Example A7, 5-{(1R,3R)-3-[3-(3-Fluorophenyl)-1,2,4-oxadiazol-5-yl]-2,2-dimethylcyclopropyl}pyridine-2-sulfonamide] the same measures were 6.19 and 5.30 to 6.30.
With `CC1(C)[C@H](c2ccc(S(N)(=O)=O)nc2)[C@H]1c1nc(-c2ccc(F)cc2F)no1` [Example A8, 5-{(1R,3R)-3-[3-(2,4-Difluorophenyl)-1,2,4-oxadiazol-5-yl]-2,2-dimethylcyclopropyl}pyridine-2-sulfonamide], the pEC50 (read-out: α7 nAChR Potency) was 5.30 to 6.30.
Consider `CC1(C)[C@H](c2ccc(S(N)(=O)=O)nc2)[C@H]1c1nc(-c2cncc(F)c2)no1` [Example A9, 5-{(1R,3R)-3-[3-(5-Fluoropyridin-3-yl)-1,2,4-oxadiazol-5-yl]-2,2-dimethylcyclopropyl}pyridine-2-sulfonamide], for which the pEC50 was 5.30 (read-out: α7 nAChR EC50) and 5.30 to 6.30 (read-out: α7 nAChR Potency).
With `CC1(C)[C@H](c2ccc(S(N)(=O)=O)nc2)[C@H]1c1nc(-c2cccc(C(F)(F)F)c2)no1` [Example A10, 5-[(1R,3R)-2,2-Dimethyl-3-{3-[3-(trifluoromethyl)phenyl]-1,2,4-oxadiazol-5-yl}cyclopropyl]pyridine-2-sulfonamide], the pEC50 (read-out: α7 nAChR Potency) is 5.30 to 6.30.
In the case of `CC1(C)[C@H](c2ccc(S(N)(=O)=O)nc2)[C@H]1c1nc(C2CC(F)(F)C2)no1` [Example A11, 5-{(1R,3R)-3-[3-(3,3-Difluorocyclobutyl)-1,2,4-oxadiazol-5-yl]-2,2-dimethylcyclopropyl}pyridine-2-sulfonamide], the pEC50 is, setting by setting: (read-out: α7 nAChR EC50) 5.52; (read-out: α7 nAChR Potency) 5.30 to 6.30.
Take `CC1(C)[C@H](c2ccc(S(N)(=O)=O)nc2)[C@H]1c1nc(C2CCC2)no1` [Example A12, 5-[(1R,3R)-3-(3-Cyclobutyl-1,2,4-oxadiazol-5-yl)-2,2-dimethylcyclopropyl]pyridine-2-sulfonamide]: the pEC50 (read-out: α7 nAChR Potency) was 5.30 to 6.30.
On the same count and under the same terms, the result for `CC1(C)[C@H](c2ccc(S(N)(=O)=O)nc2)[C@H]1c1nc(CC2CC2)no1` [Example A13, 5-{(1R,3R)-3-[3-(Cyclopropylmethyl)-1,2,4-oxadiazol-5-yl]-2,2-dimethylcyclopropyl}pyridine-2-sulfonamide] reads 5.30 to 6.30.
As to `CC(C)c1noc([C@@H]2[C@@H](c3ccc(S(N)(=O)=O)nc3)C2(C)C)n1` [Example A14, 5-{(1R,3R)-2,2-Dimethyl-3-[3-(propan-2-yl)-1,2,4-oxadiazol-5-yl]cyclopropyl}pyridine-2-sulfonamide], the pEC50 is 6.24 (read-out: α7 nAChR EC50) and 5.30 to 6.30 (read-out: α7 nAChR Potency).
For `CC1(C)[C@H](c2ccc(S(N)(=O)=O)nc2)[C@H]1c1ncc(-c2ccccc2)o1` [Example A15, 5-[(1R,3R)-2,2-Dimethyl-3-(5-phenyl-1,3-oxazol-2-yl)cyclopropyl]pyridine-2-sulfonamide] the same measures were 5.80 and 5.30 to 6.30.
The matching figures for `CC1(C)[C@@H](c2ccc(S(N)(=O)=O)nc2)[C@@H]1c1nc(-c2cccc(F)c2)no1` [Example B1, 5-{(1S,3S)-3-[3-(3-Fluorophenyl)-1,2,4-oxadiazol-5-yl]-2,2-dimethylcyclopropyl}pyridine-2-sulfonamide]: 6.51 and 6.30 to 7.00.
The matching figures for `COc1ccc(Cl)cc1-c1noc([C@H]2[C@H](c3ccc(S(N)(=O)=O)nc3)C2(C)C)n1` [Example B2, 5-{(1S,3S)-3-[3-(5-Chloro-2-methoxyphenyl)-1,2,4-oxadiazol-5-yl]-2,2-dimethylcyclopropyl}pyridine-2-sulfonamide]: 5.77 and 5.30 to 6.30.
Turning to `CC1(C)[C@@H](c2ccc(S(N)(=O)=O)nc2)[C@@H]1c1nc(-c2ccc(F)cc2F)no1` [Example B3, 5-{(1S,3S)-3-[3-(2,4-Difluorophenyl)-1,2,4-oxadiazol-5-yl]-2,2-dimethylcyclopropyl}pyridine-2-sulfonamide], the pEC50 (read-out: α7 nAChR Potency) was 5.30 to 6.30.
For `CC1(C)[C@@H](c2ccc(S(N)(=O)=O)nc2)[C@@H]1c1nc(-c2cncc(C(F)(F)F)c2)no1` [Example B4, 5-[(1S,3S)-2,2-Dimethyl-3-{3-[5-(trifluoromethyl)pyridin-3-yl]-1,2,4-oxadiazol-5-yl}cyclopropyl]pyridine-2-sulfonamide], the pEC50 runs as follows: (read-out: α7 nAChR EC50) 5.60; (read-out: α7 nAChR Potency) 5.30 to 6.30.
Take `CC1(C)[C@@H](c2ccc(S(N)(=O)=O)nc2)[C@@H]1c1nc(-c2cccc(C(F)(F)F)c2)no1` [Example B5, 5-[(1S,3S)-2,2-Dimethyl-3-{3-[3-(trifluoromethyl)phenyl]-1,2,4-oxadiazol-5-yl}cyclopropyl]pyridine-2-sulfonamide]: the pEC50 reads like this: (read-out: α7 nAChR EC50) 5.52; (read-out: α7 nAChR Potency) 5.30 to 6.30.
On to `CC1(C)[C@@H](c2ccc(S(N)(=O)=O)nc2)[C@@H]1c1nc(C2CCCCC2)no1` [Example B6, 5-[(1S,3S)-3-(3-Cyclohexyl-1,2,4-oxadiazol-5-yl)-2,2-dimethylcyclopropyl]pyridine-2-sulfonamide], for which, under “read-out: α7 nAChR Potency”, the pEC50 was 6.30 to 7.00.
Take `CC1(C)[C@@H](c2ccc(S(N)(=O)=O)nc2)[C@@H]1c1nc(C2CCCC2)no1` [Example B7, 5-[(1S,3S)-3-(3-Cyclopentyl-1,2,4-oxadiazol-5-yl)-2,2-dimethylcyclopropyl]pyridine-2-sulfonamide]: the pEC50 was 6.43 (read-out: α7 nAChR EC50) and 6.30 to 7.00 (read-out: α7 nAChR Potency).
On to `CC1(C)[C@@H](c2ccc(S(N)(=O)=O)nc2)[C@@H]1c1nc(C2CC(F)(F)C2)no1` [Example B8, 5-{(1S,3S)-3-[3-(3,3-Difluorocyclobutyl)-1,2,4-oxadiazol-5-yl]-2,2-dimethylcyclopropyl}pyridine-2-sulfonamide], for which the pEC50 (read-out: α7 nAChR Potency) is 5.30 to 6.30.
As for `CC1(C)[C@@H](c2ccc(S(N)(=O)=O)nc2)[C@@H]1c1nc(C2CCC2)no1` [Example B9, 5-[(1S,3S)-3-(3-Cyclobutyl-1,2,4-oxadiazol-5-yl)-2,2-dimethylcyclopropyl]pyridine-2-sulfonamide], the pEC50 by setting is: (read-out: α7 nAChR EC50) 6.21; (read-out: α7 nAChR Potency) 5.30 to 6.30.
Turning to `CC1(C)[C@@H](c2ccc(S(N)(=O)=O)nc2)[C@@H]1c1nc(CC2CC2)no1` [Example B10, 5-{(1S,3S)-3-[3-(Cyclopropylmethyl)-1,2,4-oxadiazol-5-yl]-2,2-dimethylcyclopropyl}pyridine-2-sulfonamide], the pEC50 is 5.80 (read-out: α7 nAChR EC50) and 5.30 to 6.30 (read-out: α7 nAChR Potency).
On to `CC1(C)[C@@H](c2ccc(S(N)(=O)=O)nc2)[C@@H]1c1nc(C2CC2)no1` [Example B11, 5-[(1S,3S)-3-(3-Cyclopropyl-1,2,4-oxadiazol-5-yl)-2,2-dimethylcyclopropyl]pyridine-2-sulfonamide], for which the pEC50 (read-out: α7 nAChR Potency) was 5.30 to 6.30.
Take `CC(C)(C)c1noc([C@H]2[C@H](c3ccc(S(N)(=O)=O)nc3)C2(C)C)n1` [Example B12, 5-[(1S,3S)-3-(3-tert-Butyl-1,2,4-oxadiazol-5-yl)-2,2-dimethylcyclopropyl]pyridine-2-sulfonamide]: the pEC50 was 5.80 (read-out: α7 nAChR EC50) and 5.30 to 6.30 (read-out: α7 nAChR Potency).
Take `CC(C)c1noc([C@H]2[C@H](c3ccc(S(N)(=O)=O)nc3)C2(C)C)n1` [Example B13, 5-{(1S,3S)-2,2-Dimethyl-3-[3-(propan-2-yl)-1,2,4-oxadiazol-5-yl]cyclopropyl}pyridine-2-sulfonamide]: where the note is “read-out: α7 nAChR Potency”, the pEC50 is 5.30 to 6.30.
